Assay results reported in PubChem BioAssay AID344 (DTP/NCI, 2004).
Several values for one entry are separate records, joined by “and”; a condition that tells them apart may be missing. Equal entries are not always repeated. Toxic doses and inconclusive results are not listed. *1 amine or outer side, *2 acyl side, *3 side chain or, on linkers, in order; H or OH if unused. Where a SMILES comes first, the peptide text is derived from it. Bridges are numbered along the chain shown (N, C = ends). Roman numbers before positions name the chains, in order. [ ]: non-standard residue; d: D form. Actinocin(9to1) = Cc1c2oc3c(C)ccc(C(=O)[*:1])c3nc-2c(C(=O)[*:2])c(N)c1=O; aThr = C[C@H](O)[C@H](N)C(=O)O; NMeV = CN[C@H](C(=O)O)C(C)C; Sar = CNCC(=O)O

System: mice, LPC-1 plasma cell tumor ip, median survival T/C
Assay: NCI In Vivo Anticancer Drug Screen. Data for tumor model Lieberman Plasma Cell No. 1 (LPC-1) (intraperitoneal) in unknown mice
Settings: endpoint: median survival time, higher = longer survival
Description: The antitumor activity of compounds was measured in mice bearing transplantable tumors. Survival or tumor size were measured and the results are expressed as the measurement made in the treated group (T) divided by the measurement made in the vehicle treated control group (C). The tumor model used in this assay is Lieberman Plasma Cell No. 1 (LPC-1) (intraperitoneal) in unknown mice

[1] = dose: 2.0 mg/kg/injection, schedule: Q01DX028 (sc), vehicle: saline
[2] = dose: 125.0 mg/kg/injection, schedule: Q01DX028 (sc), vehicle: carboxymethylcellulose (CMC)
[3] = dose: 500.0 mg/kg/injection, schedule: Q01DX028 (sc), vehicle: carboxymethylcellulose (CMC)

O=c1[nH]cc(F)c(=O)[nH]1
T/C [1]: 122 % of control | T/C (dose: 3.0 mg/kg/injection, schedule: Q01DX024 (sc), vehicle: saline): 109 % of control | T/C (dose: 4.0 mg/kg/injection, schedule: Q01DX028 (sc), vehicle: saline): 155 % of control | T/C (dose: 5.8 mg/kg/injection, schedule: Q01DX001 (sc), vehicle: saline): 105 % of control | T/C (dose: 5.8 mg/kg/injection, schedule: Q01DX002 (sc), vehicle: saline): 100 % of control | T/C (dose: 5.8 mg/kg/injection, schedule: Q01DX003 (sc), vehicle: saline): 112 % of control | T/C (dose: 5.8 mg/kg/injection, schedule: Q01DX004 (sc), vehicle: saline): 110 % of control | T/C (dose: 6.0 mg/kg/injection, schedule: Q01DX024 (sc), vehicle: saline): 121 % of control | T/C (dose: 6.0 mg/kg/injection, schedule: Q## X008 (sc), vehicle: saline): 104 % of control | T/C (dose: 6.0 mg/kg/injection, schedule: Q## X012 (sc), vehicle: saline): 114 % of control | T/C (dose: 8.0 mg/kg/injection, schedule: Q01DX028 (sc), vehicle: saline): 251 % of control | T/C (dose: 9.6 mg/kg/injection, schedule: Q01DX001 (sc), vehicle: saline): 110 % of control | T/C (dose: 9.6 mg/kg/injection, schedule: Q01DX002 (sc), vehicle: saline): 112 % of control | T/C (dose: 9.6 mg/kg/injection, schedule: Q01DX003 (sc), vehicle: saline): 120 % of control | T/C (dose: 9.6 mg/kg/injection, schedule: Q01DX004 (sc), vehicle: saline): 112 % of control | T/C (dose: 12.0 mg/kg/injection, schedule: Q01DX024 (sc), vehicle: saline): 214 % of control | T/C (dose: 12.0 mg/kg/injection, schedule: Q## X008 (sc), vehicle: saline): 117 % of control | T/C (dose: 12.0 mg/kg/injection, schedule: Q## X012 (sc), vehicle: saline): 117 % of control | T/C (dose: 16.0 mg/kg/injection, schedule: Q01DX001 (sc), vehicle: saline): 115 % of control | T/C (dose: 16.0 mg/kg/injection, schedule: Q01DX002 (sc), vehicle: saline): 117 % of control | T/C (dose: 16.0 mg/kg/injection, schedule: Q01DX028 (sc), vehicle: saline): 155 % of control | T/C (dose: 24.0 mg/kg/injection, schedule: Q## X012 (sc), vehicle: saline): 156 % of control | T/C (dose: 26.7 mg/kg/injection, schedule: Q01DX001 (sc), vehicle: saline): 120 % of control | T/C (dose: 26.7 mg/kg/injection, schedule: Q01DX002 (sc), vehicle: saline): 122 % of control | T/C (dose: 26.7 mg/kg/injection, schedule: Q01DX004 (sc), vehicle: saline): 157 % of control | T/C (dose: 32.0 mg/kg/injection, schedule: Q01DX028 (sc), vehicle: saline): 93 % of control | T/C (dose: 44.5 mg/kg/injection, schedule: Q01DX003 (sc), vehicle: saline): 107 % of control | T/C (dose: 44.5 mg/kg/injection, schedule: Q01DX004 (sc), vehicle: saline): 120 % of control | T/C (dose: 48.0 mg/kg/injection, schedule: Q01DX024 (sc), vehicle: saline): 102 % of control | T/C (dose: 96.0 mg/kg/injection, schedule: Q## X008 (sc), vehicle: saline): 95 % of control | T/C (dose: 96.0 mg/kg/injection, schedule: Q## X012 (sc), vehicle: saline): 90 % of control

CNNCc1ccc(C(=O)NC(N)=O)cc1
T/C (dose: 50.0 mg/kg/injection, schedule: Q01DX028 (sc), vehicle: saline): 100 % of control | T/C (dose: 100.0 mg/kg/injection, schedule: Q01DX028 (sc), vehicle: saline): 105 % of control | T/C (dose: 200.0 mg/kg/injection, schedule: Q01DX028 (sc), vehicle: saline): 102 % of control

OC(CBr)C(O)C(O)C(O)CBr (configuration not stated)
T/C [2]: 94 % of control and 102 % of control and 100 % of control | T/C [3]: 89 % of control and 115 % of control

CCC(CCC(C)C1CCC2C3CC=C4CC(OC(=O)CCC(=O)O)CCC4(C)C3CCC12C)C(C)C (configuration not stated)
T/C (dose: 100.0 mg/kg/injection, schedule: Q01DX028 (sc), vehicle: water): 102 % of control | T/C (dose: 400.0 mg/kg/injection, schedule: Q01DX028 (sc), vehicle: water): 100 % of control

CC1(C)CC2(CC(C)(C)Oc3cc(O)ccc32)c2ccc(O)cc2O1
T/C (dose: 50.0 mg/kg/injection, schedule: Q01DX008 (sc), vehicle: saline): 100 % of control | T/C (dose: 100.0 mg/kg/injection, schedule: Q01DX008 (sc), vehicle: saline): 97 % of control | T/C (dose: 200.0 mg/kg/injection, schedule: Q01DX008 (sc), vehicle: saline): 97 % of control | T/C (dose: 400.0 mg/kg/injection, schedule: Q01DX008 (sc), vehicle: saline): 92 % of control

CN(N=O)C(N)=O
T/C (dose: 8.4 mg/kg/injection, schedule: Q01DX028 (sc), vehicle: saline): 114 % of control | T/C (dose: 14.0 mg/kg/injection, schedule: Q01DX028 (sc), vehicle: saline): 150 % of control | T/C (dose: 39.0 mg/kg/injection, schedule: Q01DX028 (sc), vehicle: saline): 116 % of control | T/C (dose: 65.0 mg/kg/injection, schedule: Q01DX028 (sc), vehicle: saline): 100 % of control

O=CN(O)CC(=O)O
T/C (dose: 65.0 mg/kg/injection, schedule: Q01DX028 (sc), vehicle: carboxymethylcellulose (CMC)): 93 % of control | T/C (dose: 108.0 mg/kg/injection, schedule: Q01DX028 (sc), vehicle: carboxymethylcellulose (CMC)): 90 % of control | T/C (dose: 180.0 mg/kg/injection, schedule: Q01DX028 (sc), vehicle: carboxymethylcellulose (CMC)): 90 % of control | T/C (dose: 300.0 mg/kg/injection, schedule: Q01DX028 (sc), vehicle: carboxymethylcellulose (CMC)): 93 % of control | T/C [3]: 95 % of control | T/C (dose: 833.0 mg/kg/injection, schedule: Q01DX028 (sc), vehicle: carboxymethylcellulose (CMC)): 95 % of control

Cc1c2oc3c(C)ccc(C(=O)N[C@@H]4C(=O)N[C@H](C(C)C)C(=O)N5CCC[C@H]5C(=O)N(C)CC(=O)N(C)[C@@H](C(C)C)C(=O)O[C@H]4C)c3nc-2c(C(=O)N[C@@H]2C(=O)N[C@H](C(C)C)C(=O)N3CCC[C@H]3C(=O)N(C)CC(=O)N(C)[C@@H](C(C)C)C(=O)O[C@H]2C)c(N)c1=O (I: [aThr][dV]P[Sar][NMeV] / II: [aThr][dV]P[Sar][NMeV]; ester I:1-I:C, II:1-II:C; linker I:N-II:N via Actinocin(9to1))
T/C (dose: 0.03 mg/kg/injection, schedule: Q01DX028 (sc), vehicle: saline): 95 % of control | T/C (dose: 0.06 mg/kg/injection, schedule: Q01DX028 (sc), vehicle: saline): 100 % of control | T/C (dose: 0.13 mg/kg/injection, schedule: Q01DX028 (sc), vehicle: saline): 95 % of control | T/C (dose: 0.25 mg/kg/injection, schedule: Q01DX028 (sc), vehicle: saline): 90 % of control

COC1=C(N)C(=O)c2nc(-c3nc(C(=O)O)c(C)c(-c4ccc(OC)c(OC)c4O)c3N)ccc2C1=O
T/C (dose: 0.14 mg/kg/injection, schedule: Q01DX028 (sc), vehicle: other): 100 % of control | T/C (dose: 0.23 mg/kg/injection, schedule: Q01DX028 (sc), vehicle: other): 113 % of control | T/C (dose: 0.39 mg/kg/injection, schedule: Q01DX028 (sc), vehicle: other): 115 % of control | T/C (dose: 0.65 mg/kg/injection, schedule: Q01DX028 (sc), vehicle: other): 115 % of control | T/C (dose: 1.08 mg/kg/injection, schedule: Q01DX028 (sc), vehicle: other): 94 % of control | T/C (dose: 1.8 mg/kg/injection, schedule: Q01DX028 (sc), vehicle: other): 100 % of control

Cn1cnc([N+](=O)[O-])c1Sc1ncnc2nc[nH]c12
T/C (dose: 25.0 mg/kg/injection, schedule: Q01DX028 (sc), vehicle: carboxymethylcellulose (CMC)): 102 % of control | T/C (dose: 50.0 mg/kg/injection, schedule: Q01DX028 (sc), vehicle: carboxymethylcellulose (CMC)): 111 % of control and 114 % of control | T/C (dose: 75.0 mg/kg/injection, schedule: Q01DX028 (sc), vehicle: carboxymethylcellulose (CMC)): 108 % of control | T/C (dose: 100.0 mg/kg/injection, schedule: Q01DX028 (sc), vehicle: carboxymethylcellulose (CMC)): 108 % of control

COc1cc2oc(=O)ccc2cc1C(=O)CC(C)C
T/C [2]: 102 % of control | T/C (dose: 250.0 mg/kg/injection, schedule: Q01DX028 (sc), vehicle: carboxymethylcellulose (CMC)): 100 % of control | T/C [3]: 100 % of control

C[C@]12C=CC(=O)C=C1CC[C@@H]1[C@@H]2C(=O)C[C@@]2(C)[C@H]1CC[C@]2(O)C(=O)CO
T/C (dose: 16.0 mg/kg/injection, schedule: Q01DX028 (sc), vehicle: water): 86 % of control | T/C (dose: 32.0 mg/kg/injection, schedule: Q01DX028 (sc), vehicle: water): 86 % of control | T/C (dose: 50.0 mg/kg/injection, schedule: Q01DX028 (sc), vehicle: water): 105 % of control | T/C (dose: 128.0 mg/kg/injection, schedule: Q01DX028 (sc), vehicle: water): 91 % of control | T/C (dose: 200.0 mg/kg/injection, schedule: Q01DX028 (sc), vehicle: water): 92 % of control

COC12C(COC(N)=O)C3=C(C(=O)C(C)=C(N)C3=O)N1CC1C2N1C (configuration not stated)
T/C (dose: 0.7 mg/kg/injection, schedule: Q01DX028 (sc), vehicle: saline): 124 % of control | T/C [1]: 178 % of control | T/C (dose: 3.0 mg/kg/injection, schedule: Q01DX028 (sc), vehicle: saline): 156 % of control
